Like-named read-outs stand apart in the source and are kept apart here.
What was measured:
[1] = test system: MCF-7 cells; experiment: Lactate dehydrogenase (LDH) assay for cytotoxicity; assay type: cell-based; conditions: Homo sapiens, MCF7, 72 h, read-out: cell death (LDH assay)
Experimental: Cytotoxicity was determined using the CytoTox 96 non-radioactive cytotoxicity assay (Promega Corporation; 2800 Woods Hollow Road, Madison, WI, USA) following the manufacturer’s protocol. Briefly, MCF-7 cells were seeded in 96-well plates, incubated for 24 hr and then treated with test compounds (7d, 7h, 7i, 7q, 7r, 7u, 7t, 10d, 10f, 12) as described in the cell viability assay above. After 72 h, 20 μL of ‘lysis solution (10X)’ was added to control wells and the plate was incubated for a further 1 hr to ensure 100% death. 50 μL of supernatant was carefully removed from each well and transferred to a new 96-well plate. 50 μL of reconstituted ‘substrate mix’ was added and the plate was placed in the dark at room temperature for 30 min. After this period, 50 μL of ‘stop solution’ was added to each well and the absorbance was read at a wavelength of 490 nm using a Dynatech MR5000 plate reader. The percentage cell death at 10 μM was calculated.

[2] = test system: DU-145; experiment: NCI60 screen (SRB), Prostate cancer; assay type: cell-based; conditions: Homo sapiens
[3] = test system: HCT-2998; experiment: NCI60 screen (SRB), Colon Cancer; assay type: cell-based
[4] = test system: UACC-62; experiment: NCI60 screen (SRB), Melanoma; assay type: cell-based; conditions: Homo sapiens
[5] = test system: IGROV1; experiment: NCI60 screen (SRB), Ovarian cancer; assay type: cell-based; conditions: Homo sapiens, IGROV-1
[6] = test system: SK-MEL-2; experiment: NCI60 screen (SRB), Melanoma; assay type: cell-based; conditions: Homo sapiens
[7] = test system: OVCAR-5; experiment: NCI60 screen (SRB), Ovarian cancer; assay type: cell-based; conditions: Homo sapiens
[8] = test system: HT29; experiment: NCI60 screen (SRB), Colon Cancer; assay type: cell-based; conditions: Homo sapiens, HT-29
[9] = test system: T-47D; experiment: NCI60 screen (SRB), Breast cancer; assay type: cell-based; conditions: Homo sapiens, T47D
[10] = test system: PC-3; experiment: NCI60 screen (SRB), Prostate cancer; assay type: cell-based; conditions: Homo sapiens
[11] = test system: CAKI-1; experiment: NCI60 screen (SRB), Renal cancer; assay type: cell-based; conditions: Homo sapiens
[12] = test system: M14; experiment: NCI60 screen (SRB), Melanoma; assay type: cell-based; conditions: Homo sapiens
[13] = test system: SF-268; experiment: NCI60 screen (SRB), CNS Cancer; assay type: cell-based; conditions: Homo sapiens
[14] = test system: MDA-MB-231/ATCC; experiment: NCI60 screen (SRB), Breast cancer; assay type: cell-based, human; conditions: for IC50: value from NCI (footnote b)
[15] = test system: NCI/ADR-RES; experiment: NCI60 screen (SRB), Ovarian cancer; assay type: cell-based; conditions: Homo sapiens
[16] = Plasma stability study; assay type: in vitro ADME, human; parameters: half-life: dose or concentration left out as unconfirmed; conditions: 37 °C; for remaining after 6 h: human plasma
Experimental: Analytical high-performance liquid chromatography (HPLC) stability studies were performed using a Symmetry® column (C18, 5 µm, 4.6 × 150 mm), a Waters 2487 Dual Wavelength Absorbance detector, a Waters 1525 binary HPLC pump and a Waters 717 plus Autosampler (Waters Corporation, 34 Maple St, Milford, MA, USA). Samples were detected at wavelength of 254 nm. All samples were analysed using acetonitrile (80%) and water (20%) as the mobile phase over 10 min and a flow rate of 1 mL/min. Stock solutions were prepared by dissolving 5 mg of compound 7s, 17b and 17c in 10 mL of mobile phase. Phosphate buffers at the desired pH values (4, 7.4 and 9) were prepared in accordance with the British Pharmacopoeia monograph 2015. 30 µL of stock solution was diluted with 1 mL of appropriate buffer, shaken and injected immediately. Samples were withdrawn and analysed at time intervals of t = 0 min, 5 min, 30 min, 60 min, 90 min, 120 min, 24 h and 48 h. Plasma stability studies: 360 µL stock solution of compounds 7s, 17b and 17c were transferred to buffered plasma (plasma: buffer = 1:9, 4 mL in total) at 37 °C in screw cap container. Immediately a 250 µL aliquot was withdrawn and added to the Eppendorf tube containing 500 µL ZnSO4.7H2O solution (2% w/v ZnSO4 solution in acetonitrile: water, 1:1). The samples were then centrifuged at 10,000 rpm for 3 min and filtered through a 0.2-micron filter and injected according to the HPLC conditions listed above. Further samples were taken in the same manner every 1 h thereafter up to 6 h. A final sample was taken after 24 h. Whole blood stability studies. A 360 µL aliquot of stock solution of compounds 17b and 17c in acetonitrile was added in whole blood (4 mL, treated with 2% sodium citrate) at 37 °C and 300 µL aliquots were withdrawn at approptiate intervals. Samples were transferred to 1.5 mL Eppenddorf tubes containing 1 mL of ZnSO4. 7H2O solution (2% w/v ZnSO4 solution in acetonitrile: water, 1:1), vortexed and then centrifuged for 5 min at 14,000 rpm. The sample filtered through a 0.2-micron filter and injected according to the HPLC conditions listed above.

[17] = test system: TK-10; experiment: NCI60 screen (SRB), Renal cancer; assay type: cell-based; conditions: Homo sapiens
[18] = test system: SF539; experiment: NCI60 screen (SRB), CNS Cancer; assay type: cell-based; conditions: Homo sapiens, SF-539
[19] = test system: MOLT-4; experiment: NCI60 screen (SRB), Leukemia; assay type: cell-based; conditions: Homo sapiens
[20] = NCI60 Prostate cancer cell line DU-145, read-out: GI50
[21] = NCI60 Colon Cancer cell line HCT-2998, read-out: GI50
[22] = NCI60 Melanoma cell line UACC-62, read-out: GI50
[23] = NCI60 Ovarian cancer cell line IGROV1, read-out: GI50
[24] = human, buffered plasma (plasma:buffer 1:9), plasma, read-out: half-life (t½)
[25] = NCI60 Melanoma cell line SK-MEL-2, read-out: GI50
[26] = NCI60 Ovarian cancer cell line OVCAR-5, read-out: GI50
[27] = NCI60 Renal cancer cell line TK-10, read-out: GI50
[28] = NCI60 Colon Cancer cell line HT29, read-out: GI50
[29] = NCI60 Breast cancer cell line T-47D, read-out: GI50
[30] = NCI60 Prostate cancer cell line PC-3, read-out: GI50
[31] = NCI60 Renal cancer cell line CAKI-1, read-out: GI50
[32] = NCI60 Melanoma cell line M14, read-out: GI50
[33] = NCI60 CNS Cancer cell line SF-268, read-out: GI50
[34] = Homo sapiens, NCI60 Breast cancer cell line MDA-MB-231/ATCC, read-out: GI50
[35] = NCI60 Ovarian cancer cell line NCI/ADR-RES, read-out: GI50
[36] = NCI60 CNS Cancer cell line SF539, read-out: GI50
[37] = NCI60 Leukemia cell line MOLT-4, read-out: GI50

SMILES | cytotoxicity at 10 µM [1] | GI50 ([2]; DU-145) | GI50 [3] | GI50 ([4]; UACC-62) | GI50 [5] | GI50 [2, 20] | GI50 [3, 21] | GI50 [4, 22] | GI50 [5, 23] | GI50 [6, 25] | GI50 [7, 26] | GI50 [17, 27] | GI50 [8, 28] | GI50 [9, 29] | GI50 [10, 30] | GI50 [11, 31] | GI50 [12, 32] | GI50 [13, 33] | GI50 [14, 34] | GI50 [15, 35] | also measured
COc1ccc(/C=C\c2cc(OC)c(OC)c(OC)c2)cc1O [CA-4, Combretastatin A-4, reference compound] | 11.8% |  |  |  |  |  |  |  |  |  |  |  |  |  |  |  |  |  |  |  | 
C=CC1C(=O)N(c2cc(OC)c(OC)c(OC)c2)C1c1ccc(OC)cc1 (stereo not drawn) [Compound 7h, 4-(4-Methoxyphenyl)-1-(3,4,5-trimethoxyphenyl)-3-vinylazetidin-2-one] | 2.4% | 29.8 nM | 35.3 nM | 50.2 nM | 40.4 nM |  |  |  |  |  |  |  |  |  |  |  |  |  |  |  | GI50 ([6]; SK-MEL-2): 191 nM; GI50 ([7]; OVCAR-5): 58.7 nM; GI50 [8]: 33.7 nM; GI50 [9]: 20500 nM; GI50 ([10]; PC-3): 37.4 nM; GI50 ([11]; CAKI-1): 392 nM; GI50 ([12]; M14): 25.2 nM; GI50 ([13]; SF-268): 47.6 nM; GI50 ([14]; Homo sapiens, MDA-MB-231): 31.7 nM; IC50 ([14]; Homo sapiens, MDA-MB-231, read-out: Antiproliferative Activity IC50, MDA-MB-231): 31 nM; IC50 ([14]; read-out: Antiproliferative Activity IC50, MDA-MB-231): 31.7 nM; GI50 ([15]; NCI/ADR-RES): 27.2 nM
C=CC1C(=O)N(c2cc(OC)c(OC)c(OC)c2)C1c1ccc(OC)c(O)c1 (stereo not drawn) [Compound 7s, 4-[3-Hydroxy-4-methoxyphenyl]-1-(3,4,5-trimethoxyphenyl)-3-vinylazetidin-2-one] | 16.1% |  |  |  |  | < 10 nM | 36.4 nM | < 10 nM | < 10 nM | 31.4 nM | 45.3 nM | 10.2 nM | 429 nM | 29.9 nM | < 10 nM | 40.2 nM | < 10 nM | < 10 nM | < 10 nM | < 10 nM | half-life at 41.3 µg/mL [16, 24]: > 24 h; IC50 ([14]; Homo sapiens, MDA-MB-231, read-out: Antiproliferative Activity IC50): 10 nM
C=CC1C(=O)N(c2cc(OC)c(OC)c(OC)c2)C1c1ccc(OC)c(N)c1 (stereo not drawn) [Compound 7t, 4-(3-Amino-4-methoxyphenyl)-1-(3,4,5-trimethoxyphenyl)-3-vinylazetidin-2-one] | 25% | 36.5 nM | 36.8 nM | 12300 nM | 49.6 nM |  |  |  |  |  |  |  |  |  |  |  |  |  |  |  | GI50 [18]: < 10 nM; GI50 ([6]; SK-MEL-2): 65.6 nM; GI50 ([7]; OVCAR-5): 44.6 nM; GI50 ([17]; TK-10): 26800 nM; GI50 [8]: 17.9 nM; GI50 ([19]; MOLT-4): 40 nM; GI50 ([10]; PC-3): 41.5 nM; GI50 ([11]; CAKI-1): 32.9 nM; GI50 ([12]; M14): 27.2 nM; GI50 ([13]; SF-268): 54.6 nM; GI50 ([14]; Homo sapiens, MDA-MB-231): 41.5 nM; GI50 ([15]; NCI/ADR-RES): < 10 nM
C=CC1C(=O)N(c2cc(OC)c(OC)c(OC)c2)C1c1ccc(OC)c(OP(=O)(O)O)c1 (stereo not drawn) [Compound 17b, 2-Methoxy-5-(1-(3,4,5-trimethoxyphenyl)-4-oxo-3-vinylazetidin-2-yl)phenyl dihydrogen phosphate] |  |  |  |  |  | 59.6 nM | 190 nM | 51.1 nM | 66.9 nM | 85.8 nM | 3570 nM | 11400 nM | 2780 nM | > 100000 nM | 53.6 nM | 71.7 nM | 748 nM | 88.4 nM | 48.6 nM | 37 nM | GI50 [18, 36]: 42 nM; remaining after 6 h [16]: 94%; half-life [16, 24]: > 24 h; GI50 [19, 37]: 129 nM; IC50 ([14]; Homo sapiens, MDA-MB-231, MDA-MB-231, read-out: Antiproliferative Activity IC50): 49 nM; IC50 ([14]; MDA-MB-231, read-out: Antiproliferative Activity IC50): 48.6 nM
CCC1C(=O)N(c2cc(OC)c(OC)c(OC)c2)C1c1ccc(OC)c(OP(=O)(O)O)c1 (stereo not drawn) [Compound 17c, 5-(3-Ethyl-1-(3,4,5-trimethoxyphenyl)-4-oxoazetidin-2-yl)-2-methoxyphenyl dihydrogen phosphate] |  |  |  |  |  | 41.3 nM | 40.9 nM | 34.8 nM | 37.6 nM | 54.4 nM | 444 nM | 73.6 nM | 356 nM | > 100000 nM | 34.9 nM | 35.2 nM | 31.7 nM | 43.3 nM | 31 nM | 19.1 nM | GI50 [18, 36]: 16.2 nM; remaining after 6 h [16]: 92%; half-life [16, 24]: > 24 h; GI50 [19, 37]: 47.7 nM

Source: publication PMC6630832, “3-Vinylazetidin-2-Ones: Synthesis, Antiproliferative and Tubulin Destabilizing Activity in MCF-7 and MDA-MB-231 Breast Cancer Cells” (Pharmaceuticals, 2019)
